From ChEMBL document CHEMBL3991601, “The target landscape of clinical kinase drugs” (Science, 2017)
The source made the active and inactive calls. Rule as the data show it, for most assays here: actives have a measured Kd and inactives only a lower limit.

How the values were obtained:
[1] = target: Mitogen-activated protein kinase kinase kinase 4 (Homo sapiens, UniProt Q9Y6R4)
[2] = target: T1, MAP/microtubule affinity-regulating kinase 4 (Homo sapiens, UniProt Q96L34)
T1 sequence (Q96L34 whole entry): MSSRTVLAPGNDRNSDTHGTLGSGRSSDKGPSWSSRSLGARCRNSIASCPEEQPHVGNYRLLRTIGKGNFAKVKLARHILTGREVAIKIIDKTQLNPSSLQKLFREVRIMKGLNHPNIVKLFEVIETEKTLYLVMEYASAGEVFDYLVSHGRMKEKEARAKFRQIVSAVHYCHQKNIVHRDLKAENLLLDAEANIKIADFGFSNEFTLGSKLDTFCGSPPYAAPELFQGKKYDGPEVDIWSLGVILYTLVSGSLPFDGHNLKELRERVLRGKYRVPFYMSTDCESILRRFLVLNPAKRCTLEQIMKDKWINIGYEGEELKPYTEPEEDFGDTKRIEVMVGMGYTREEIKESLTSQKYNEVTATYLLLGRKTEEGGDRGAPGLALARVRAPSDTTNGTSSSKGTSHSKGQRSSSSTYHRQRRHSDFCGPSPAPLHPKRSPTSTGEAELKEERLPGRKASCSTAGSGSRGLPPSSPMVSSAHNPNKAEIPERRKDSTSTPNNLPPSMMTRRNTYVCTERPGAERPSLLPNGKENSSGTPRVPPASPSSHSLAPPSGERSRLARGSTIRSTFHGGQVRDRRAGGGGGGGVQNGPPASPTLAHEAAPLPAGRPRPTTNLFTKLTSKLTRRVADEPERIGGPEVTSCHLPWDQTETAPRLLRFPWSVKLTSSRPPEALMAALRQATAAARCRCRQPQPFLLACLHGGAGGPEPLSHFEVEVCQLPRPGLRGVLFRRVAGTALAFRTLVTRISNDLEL

[3] = target: Activin receptor type-2B (Homo sapiens, UniProt Q13705)
Chain of Activin receptor type-2B (Q13705 whole entry): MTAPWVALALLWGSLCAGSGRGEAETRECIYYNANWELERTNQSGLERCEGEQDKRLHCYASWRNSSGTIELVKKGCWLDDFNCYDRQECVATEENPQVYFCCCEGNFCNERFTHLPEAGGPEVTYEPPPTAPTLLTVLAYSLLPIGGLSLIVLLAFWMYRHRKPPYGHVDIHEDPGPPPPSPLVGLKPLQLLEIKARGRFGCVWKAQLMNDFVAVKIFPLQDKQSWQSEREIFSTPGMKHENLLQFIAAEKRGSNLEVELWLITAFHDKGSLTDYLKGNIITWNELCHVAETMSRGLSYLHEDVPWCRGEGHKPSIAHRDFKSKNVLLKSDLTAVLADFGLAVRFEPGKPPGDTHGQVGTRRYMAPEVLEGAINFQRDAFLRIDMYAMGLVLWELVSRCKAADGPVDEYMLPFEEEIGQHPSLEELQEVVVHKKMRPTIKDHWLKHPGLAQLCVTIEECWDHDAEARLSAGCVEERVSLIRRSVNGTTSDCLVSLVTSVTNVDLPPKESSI

[4] = target: Protein kinase C alpha type (Homo sapiens, UniProt P17252)
[5] = target: Receptor-interacting serine/threonine-protein kinase 2 (Homo sapiens, UniProt O43353)
Chain of Receptor-interacting serine/threonine-protein kinase 2 (O43353 whole entry): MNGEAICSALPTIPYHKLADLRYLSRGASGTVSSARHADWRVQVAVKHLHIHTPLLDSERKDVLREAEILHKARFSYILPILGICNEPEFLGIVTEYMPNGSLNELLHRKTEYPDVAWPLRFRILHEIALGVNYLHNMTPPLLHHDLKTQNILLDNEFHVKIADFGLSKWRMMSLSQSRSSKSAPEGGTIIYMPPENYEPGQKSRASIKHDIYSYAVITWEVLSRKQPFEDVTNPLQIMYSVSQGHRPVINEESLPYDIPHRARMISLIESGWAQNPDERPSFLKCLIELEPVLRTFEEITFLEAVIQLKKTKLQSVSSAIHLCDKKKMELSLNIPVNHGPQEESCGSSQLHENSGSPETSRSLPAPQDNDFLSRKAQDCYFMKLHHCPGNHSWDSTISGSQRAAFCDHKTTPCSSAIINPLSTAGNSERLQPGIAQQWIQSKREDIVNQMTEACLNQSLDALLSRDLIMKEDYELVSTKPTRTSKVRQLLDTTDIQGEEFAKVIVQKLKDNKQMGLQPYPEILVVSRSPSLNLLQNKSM

[6] = target: Dual specificity protein kinase CLK1 (Homo sapiens, UniProt P49759)
Chain of Dual specificity protein kinase CLK1 (P49759 whole entry, the tested form may be a part): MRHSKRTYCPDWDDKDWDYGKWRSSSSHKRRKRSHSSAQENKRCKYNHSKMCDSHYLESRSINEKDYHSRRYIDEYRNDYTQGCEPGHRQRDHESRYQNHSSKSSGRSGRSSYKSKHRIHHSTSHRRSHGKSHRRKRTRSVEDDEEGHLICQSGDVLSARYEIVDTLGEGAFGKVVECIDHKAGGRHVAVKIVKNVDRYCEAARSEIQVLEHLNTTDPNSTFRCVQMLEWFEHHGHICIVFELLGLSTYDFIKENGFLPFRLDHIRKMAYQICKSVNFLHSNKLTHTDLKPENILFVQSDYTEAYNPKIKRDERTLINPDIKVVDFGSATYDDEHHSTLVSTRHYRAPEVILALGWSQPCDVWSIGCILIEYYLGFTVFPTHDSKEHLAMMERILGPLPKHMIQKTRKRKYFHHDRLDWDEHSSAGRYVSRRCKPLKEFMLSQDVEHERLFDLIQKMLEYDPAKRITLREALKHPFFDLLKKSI

[7] = target: T2, AarF domain-containing protein kinase 1 (Homo sapiens, UniProt Q86TW2)
T2 sequence (Q86TW2 whole entry): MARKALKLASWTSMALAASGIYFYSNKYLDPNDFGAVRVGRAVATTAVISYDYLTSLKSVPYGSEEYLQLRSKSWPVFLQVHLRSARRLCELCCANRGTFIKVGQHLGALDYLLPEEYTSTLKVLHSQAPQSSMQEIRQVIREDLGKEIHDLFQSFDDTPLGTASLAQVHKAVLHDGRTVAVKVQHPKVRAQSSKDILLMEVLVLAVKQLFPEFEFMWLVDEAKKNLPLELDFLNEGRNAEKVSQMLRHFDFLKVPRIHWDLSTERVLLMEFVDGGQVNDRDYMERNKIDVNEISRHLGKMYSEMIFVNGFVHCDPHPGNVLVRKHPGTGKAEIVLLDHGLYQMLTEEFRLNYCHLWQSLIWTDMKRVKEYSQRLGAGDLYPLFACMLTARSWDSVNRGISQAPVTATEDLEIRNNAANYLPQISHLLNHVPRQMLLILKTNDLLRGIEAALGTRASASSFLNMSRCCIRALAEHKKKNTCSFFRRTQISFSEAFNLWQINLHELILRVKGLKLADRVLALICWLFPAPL

[8] = target: T3, Serine/threonine-protein kinase STK11 (Homo sapiens, UniProt Q15831)
T3 sequence (Q15831 whole entry): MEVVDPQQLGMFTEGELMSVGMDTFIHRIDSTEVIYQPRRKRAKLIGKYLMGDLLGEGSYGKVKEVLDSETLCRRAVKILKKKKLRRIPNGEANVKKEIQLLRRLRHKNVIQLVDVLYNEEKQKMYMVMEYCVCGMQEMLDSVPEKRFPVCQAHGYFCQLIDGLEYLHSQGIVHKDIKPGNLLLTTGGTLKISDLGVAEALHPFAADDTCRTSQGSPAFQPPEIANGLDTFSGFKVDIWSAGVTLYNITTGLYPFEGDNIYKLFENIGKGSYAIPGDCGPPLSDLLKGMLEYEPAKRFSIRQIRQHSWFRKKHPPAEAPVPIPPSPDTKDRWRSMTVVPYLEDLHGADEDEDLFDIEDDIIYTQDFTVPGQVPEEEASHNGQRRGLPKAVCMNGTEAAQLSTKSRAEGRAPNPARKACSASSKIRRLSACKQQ

[9] = target: Serine/threonine-protein kinase N2 (Homo sapiens, UniProt Q16513)
Chain of Serine/threonine-protein kinase N2 (Q16513 whole entry): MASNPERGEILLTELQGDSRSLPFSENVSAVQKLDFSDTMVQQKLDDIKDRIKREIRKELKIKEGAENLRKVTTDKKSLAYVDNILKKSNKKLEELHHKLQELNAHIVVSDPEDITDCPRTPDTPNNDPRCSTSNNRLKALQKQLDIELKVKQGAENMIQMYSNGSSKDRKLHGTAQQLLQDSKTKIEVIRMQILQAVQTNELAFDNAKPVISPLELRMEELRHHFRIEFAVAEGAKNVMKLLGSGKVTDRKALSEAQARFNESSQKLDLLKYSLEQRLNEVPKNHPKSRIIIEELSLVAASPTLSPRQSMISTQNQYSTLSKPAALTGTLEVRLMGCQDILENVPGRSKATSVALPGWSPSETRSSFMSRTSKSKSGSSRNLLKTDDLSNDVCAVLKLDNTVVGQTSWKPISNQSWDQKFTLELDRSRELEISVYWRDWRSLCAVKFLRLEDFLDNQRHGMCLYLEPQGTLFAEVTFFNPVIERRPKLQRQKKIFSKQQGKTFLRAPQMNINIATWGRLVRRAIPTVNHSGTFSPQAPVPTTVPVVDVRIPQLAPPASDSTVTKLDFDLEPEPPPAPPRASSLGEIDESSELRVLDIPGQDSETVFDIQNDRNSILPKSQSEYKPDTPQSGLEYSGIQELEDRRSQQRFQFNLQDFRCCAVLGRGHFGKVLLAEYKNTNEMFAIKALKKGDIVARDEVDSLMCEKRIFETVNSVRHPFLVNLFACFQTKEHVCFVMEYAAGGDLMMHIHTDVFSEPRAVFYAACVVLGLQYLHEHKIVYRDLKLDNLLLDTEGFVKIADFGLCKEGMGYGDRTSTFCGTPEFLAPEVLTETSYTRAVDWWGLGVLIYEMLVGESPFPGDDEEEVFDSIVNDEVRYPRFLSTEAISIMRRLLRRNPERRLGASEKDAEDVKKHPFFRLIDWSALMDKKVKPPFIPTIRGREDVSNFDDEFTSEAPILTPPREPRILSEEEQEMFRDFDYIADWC

[10] = target: Macrophage-stimulating protein receptor (Homo sapiens, UniProt Q04912)
[11] = target: Dual specificity mitogen-activated protein kinase kinase 1 (Homo sapiens, UniProt Q02750)
[12] = target: Dual specificity tyrosine-phosphorylation-regulated kinase 1A (Homo sapiens, UniProt Q13627)
[13] = target: Cyclin-dependent kinase 2 (Homo sapiens, UniProt P24941)
Also: in the data inactive means no Kd found up to 30 µM.

Chain of Mitogen-activated protein kinase kinase kinase 4 (Q9Y6R4 whole entry): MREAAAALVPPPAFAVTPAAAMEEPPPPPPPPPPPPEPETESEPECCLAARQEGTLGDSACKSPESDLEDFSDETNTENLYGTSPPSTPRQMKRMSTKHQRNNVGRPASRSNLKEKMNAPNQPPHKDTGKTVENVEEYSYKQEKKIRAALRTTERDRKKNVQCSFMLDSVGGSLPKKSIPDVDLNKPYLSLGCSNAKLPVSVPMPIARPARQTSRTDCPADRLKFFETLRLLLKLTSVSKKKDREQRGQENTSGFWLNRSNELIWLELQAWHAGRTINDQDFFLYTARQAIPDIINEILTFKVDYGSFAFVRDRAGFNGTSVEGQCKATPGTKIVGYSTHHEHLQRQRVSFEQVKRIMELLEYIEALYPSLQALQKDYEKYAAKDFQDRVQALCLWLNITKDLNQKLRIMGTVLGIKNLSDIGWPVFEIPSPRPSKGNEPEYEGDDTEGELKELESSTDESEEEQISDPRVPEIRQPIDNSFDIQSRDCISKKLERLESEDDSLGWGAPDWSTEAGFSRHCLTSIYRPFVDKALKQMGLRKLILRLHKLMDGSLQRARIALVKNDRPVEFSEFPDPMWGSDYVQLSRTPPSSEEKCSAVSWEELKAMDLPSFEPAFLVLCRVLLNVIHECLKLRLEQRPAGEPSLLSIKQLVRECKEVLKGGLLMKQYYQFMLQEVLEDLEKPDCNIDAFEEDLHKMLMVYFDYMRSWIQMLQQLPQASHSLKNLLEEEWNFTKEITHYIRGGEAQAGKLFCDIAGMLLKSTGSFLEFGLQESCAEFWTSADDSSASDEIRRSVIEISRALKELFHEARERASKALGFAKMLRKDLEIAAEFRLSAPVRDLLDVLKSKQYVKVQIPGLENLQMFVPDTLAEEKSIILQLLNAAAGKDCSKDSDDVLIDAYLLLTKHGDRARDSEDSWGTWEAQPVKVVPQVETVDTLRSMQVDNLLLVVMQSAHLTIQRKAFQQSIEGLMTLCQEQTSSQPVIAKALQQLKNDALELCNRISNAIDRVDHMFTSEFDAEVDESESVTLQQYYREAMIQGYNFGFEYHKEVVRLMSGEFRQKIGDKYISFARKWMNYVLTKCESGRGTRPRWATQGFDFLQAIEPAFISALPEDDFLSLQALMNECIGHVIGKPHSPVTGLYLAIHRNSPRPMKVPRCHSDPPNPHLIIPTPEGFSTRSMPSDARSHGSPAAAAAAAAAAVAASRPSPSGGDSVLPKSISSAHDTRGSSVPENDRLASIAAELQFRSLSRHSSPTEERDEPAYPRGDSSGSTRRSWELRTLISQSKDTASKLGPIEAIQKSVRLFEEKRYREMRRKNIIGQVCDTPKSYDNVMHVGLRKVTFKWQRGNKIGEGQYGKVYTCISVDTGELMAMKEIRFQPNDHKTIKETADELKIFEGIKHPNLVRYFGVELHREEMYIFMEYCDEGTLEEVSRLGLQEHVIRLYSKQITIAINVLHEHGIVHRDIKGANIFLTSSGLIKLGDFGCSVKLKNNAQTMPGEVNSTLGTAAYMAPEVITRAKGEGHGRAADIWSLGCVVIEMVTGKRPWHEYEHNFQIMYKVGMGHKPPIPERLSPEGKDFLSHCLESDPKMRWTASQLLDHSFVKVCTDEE

| Structure (SMILES) | Kd [1] | Kd [2] | Kd [3] | Kd [4] | Kd [5] | Kd [6] | Kd [7] | Kd [8] | Kd [9] | Kd [10] | Kd [11] | Kd [12] | Kd [13] |
| --- | --- | --- | --- | --- | --- | --- | --- | --- | --- | --- | --- | --- | --- |
| COc1cc(Nc2ncc3c(n2)-c2ccc(Cl)cc2C(c2c(F)cccc2OC)=NC3)ccc1C(=O)O [ALISERTIB] | > 30 µM (inactive) | > 30 µM (inactive) | > 30 µM (inactive) | > 30 µM (inactive) | > 30 µM (inactive) | > 30 µM (inactive) | > 30 µM (inactive) | > 30 µM (inactive) |  |  |  |  |  |
| O=C(Nc1c[nH]nc1-c1nc2cc(CN3CCOCC3)ccc2[nH]1)NC1CC1 [AT-9283] |  |  | > 30 µM (inactive) |  | > 30 µM (inactive) | 2.04 µM (active) | 0.559 µM (active) | > 30 µM (inactive) | 2.77 µM (active) | > 30 µM (inactive) | > 30 µM (inactive) | 2.45 µM (active) |  |
| CNC(=O)c1ccccc1Sc1ccc2c(/C=C/c3ccccn3)n[nH]c2c1 [AXITINIB] |  |  |  | > 30 µM (inactive) |  |  | > 30 µM (inactive) |  |  |  |  |  |  |
| NC(=O)Nc1cc(-c2cccc(F)c2)sc1C(=O)N[C@H]1CCCNC1 [AZD-7762] | > 30 µM (inactive) | 0.475 µM (active) | 0.253 µM (active) | > 30 µM (inactive) | > 30 µM (inactive) | > 30 µM (inactive) | > 30 µM (inactive) | > 30 µM (inactive) | 3.1 µM (active) | > 30 µM (inactive) | 2.04 µM (active) | 1.68 µM (active) | > 30 µM (inactive) |
| COc1cc2ncnc(Oc3cccc(NC(=O)Nc4cc(C(C)(C)C(F)(F)F)on4)c3)c2cc1OC [CEP-32496] | > 30 µM (inactive) | > 30 µM (inactive) | > 30 µM (inactive) | > 30 µM (inactive) | 0.442 µM (active) | > 30 µM (inactive) | > 30 µM (inactive) | > 30 µM (inactive) | > 30 µM (inactive) | > 30 µM (inactive) | > 30 µM (inactive) | > 30 µM (inactive) | > 30 µM (inactive) |
| Cc1cc(Nc2ncc(Cl)c(Nc3ccccc3S(=O)(=O)C(C)C)n2)c(OC(C)C)cc1C1CCNCC1 [CERITINIB] | > 30 µM (inactive) | > 30 µM (inactive) | > 30 µM (inactive) | > 30 µM (inactive) | > 30 µM (inactive) | 1.06 µM | > 30 µM (inactive) | > 30 µM (inactive) | > 30 µM (inactive) | > 30 µM (inactive) | > 30 µM (inactive) | > 30 µM (inactive) | > 30 µM (inactive) |
| COCC(=O)NC/C=C/c1ccc2ncnc(Nc3ccc(Oc4ccc(C)nc4)c(C)c3)c2c1 [CP-724714] | > 30 µM (inactive) | > 30 µM (inactive) | > 30 µM (inactive) | > 30 µM (inactive) | > 30 µM (inactive) | > 30 µM (inactive) | > 30 µM (inactive) | > 30 µM (inactive) | > 30 µM (inactive) | > 30 µM (inactive) | > 30 µM (inactive) | > 30 µM (inactive) | > 30 µM (inactive) |
| C#Cc1cccc(Nc2ncnc3cc(OC)c(OCCCCCCC(=O)NO)cc23)c1 [CUDC-101] | > 30 µM (inactive) | > 30 µM (inactive) | > 30 µM (inactive) | > 30 µM (inactive) | 1.09 µM (active) | > 30 µM (inactive) | > 30 µM (inactive) | > 30 µM (inactive) | > 30 µM (inactive) | > 30 µM (inactive) | > 30 µM (inactive) | > 30 µM (inactive) | > 30 µM (inactive) |
| CC(C)(C)c1nc(-c2cccc(NS(=O)(=O)c3c(F)cccc3F)c2F)c(-c2ccnc(N)n2)s1 [DABRAFENIB] | > 30 µM (inactive) | > 30 µM (inactive) | > 30 µM (inactive) | > 30 µM (inactive) | 0.106 µM (active) | > 30 µM (inactive) | > 30 µM (inactive) | > 30 µM (inactive) | > 30 µM (inactive) | > 30 µM (inactive) | > 30 µM (inactive) |  | 0.019 µM (active) |
| Cn1cc(C2=C(c3cn(C4CCN(Cc5ccccn5)CC4)c4ccccc34)C(=O)NC2=O)c2ccccc21 [ENZASTAURIN] |  |  |  |  |  |  | > 30 µM (inactive) |  |  |  |  |  |  |
| C[C@@H](Oc1cc(-n2cnc3ccc(CN4CCN(C)CC4)cc32)sc1C(N)=O)c1ccccc1C(F)(F)F [GSK-461364] |  |  | > 30 µM (inactive) | > 30 µM (inactive) |  |  | > 30 µM (inactive) |  |  |  |  |  |  |
| CCn1cc(-c2ccnc3[nH]c(-c4cccc(CN(C)C)c4)cc23)c(-c2ccc(NC(=O)N(C)C)cc2)n1 [GSK-1070916] | 1.43 µM (active) | > 30 µM (inactive) |  | > 30 µM (inactive) | 0.611 µM (active) | > 30 µM (inactive) | 22.7 µM (active) | > 30 µM (inactive) | > 30 µM (inactive) | > 30 µM (inactive) | > 30 µM (inactive) | > 30 µM (inactive) | > 30 µM (inactive) |
| Cc1[nH]c(/C=C2\C(=O)Nc3ccccc32)c(C)c1CCC(=O)O [ORANTINIB] | > 30 µM (inactive) |  | > 30 µM (inactive) | > 30 µM (inactive) | > 30 µM (inactive) | > 30 µM (inactive) | > 30 µM (inactive) |  |  | > 30 µM (inactive) | 3.43 µM (active) |  |  |
| NC(=O)c1c(OCc2c(F)cc(Br)cc2F)nsc1NC(=O)NCCCCN1CCCC1 [OSI-632] | > 30 µM (inactive) | > 30 µM (inactive) | > 30 µM (inactive) | > 30 µM (inactive) | 0.958 µM (active) | > 30 µM (inactive) | 0.281 µM (active) | > 30 µM (inactive) |  |  |  |  |  |
| CCOc1cc2ncc(C#N)c(Nc3ccc(F)c(Cl)c3)c2cc1NC(=O)/C=C/CN(C)C [PELITINIB] |  | > 30 µM (inactive) | > 30 µM (inactive) | > 30 µM (inactive) | > 30 µM (inactive) | > 30 µM (inactive) | > 30 µM (inactive) | > 30 µM (inactive) | > 30 µM (inactive) | > 30 µM (inactive) | 8.77 µM (active) | > 30 µM (inactive) | > 30 µM (inactive) |
| CC(=O)NCC(=O)N1[C@@H]2CC[C@H]1c1ccc(Nc3ncc(C(F)(F)F)c(NC4CCC4)n3)cc12 [PF-03814735] | > 30 µM (inactive) | 0.009 µM (active) | > 30 µM (inactive) | > 30 µM (inactive) | > 30 µM (inactive) | > 30 µM (inactive) | > 30 µM (inactive) | > 30 µM (inactive) |  |  |  |  |  |
| O=C(NOCCO)c1cc(CN2OCCCC2=O)c(F)c(F)c1Nc1ccc(I)cc1F [RO-4987655] |  |  |  | > 30 µM (inactive) |  |  | > 30 µM (inactive) |  |  |  |  |  |  |
| N#CC[C@H](C1CCCC1)n1cc(-c2ncnc3[nH]ccc23)cn1 [RUXOLITINIB] |  |  |  | 16.5 µM (active) |  |  | > 30 µM (inactive) |  |  |  |  |  |  |
